Experiments:
[1] = system: TGF-β-induced ROS in HSC-T6 cells; experiment: ROS assay on TGF-β1 and PL-treated HSC-T6 cells (DCFH-DA, flow cytometry); type: cell-based; details: pretreatment with 30˜300 nM PL, TGF-β1 2 ng/ml
Experimental: (§1) Cells were incubated with 2 ng/ml of TGF-β and PL for 5 hours and analyzed for the oxidation state using 7-dichlorodihydrofluorescein diacetate (DCFH-DA) as a fluorogenic probe and flow cytometer (FACSCalibur). The cells were recovered with 0.01% trypsin and the cellular fluorescence intensity was measured after 30 min incubation of 5 μM DCFHDA. For each analysis, 10,000 events were recorded. Cells were collected in 0.01% trypsin, fixed with 3.7% formaldehyde, permeabilized with 0.02% Triton X-100 in PBS, and stained for a-SMA as described previously. For detecting a-SMA using flow cytometry, cells were treated with 2 ng/ml of TGF-β and PL for 12 hours and immunostained with α-SMA-specific antibody (Santa Cruz) and FITC-conjugated secondary antibody (Molecular Probe). Then the cells were recovered and subjected to flow cytometer, and PL can effectively eliminate radicals as ROS decreased with increasing dosages of PL, as referred to FIG. 1.
ROS intermediates act as signaling molecules of TGF-β in regulation of inflammatory and fibrotic responses. Therefore, first select marker was to determine whether PL could be an antioxidant to block TGF-β-induced ROS in HSC-T6 cells. The intracellular oxidation state of the cell was analyzed by flow cytometry, when ROS were induced by TGF-β1 (2 ng/ml). […]

[2] = system: [Ca2+]i in TGF-β treated HSC-T6 cells; experiment: Measurement of cytosolic Ca2+ ([Ca2+]i) with fura-2; type: cell-based; details: HSC-T6 cells treated with PL, then TGF-β1 added; compared with positive control
Experimental: Trypsinized cells (10^6/ml) were recovered 4 h after culture with PL and loaded with 2 μM fura-2/acetoxy methyl (fura-2/AM) for 30 min at 25° C. before stimulating with TGF-β (2ng/ml). Cells were gently shaken for several seconds every 10 min to prevent re-attachment. Cells were washed and resuspended in Ca^2+-containing medium. Fura-2 fluorescence measurements were performed in a water-jacketed cuvette with continuous stirring at 25° C. Fluorescence was monitored with a Hitachi F-2500 fluorescence spectrophotometer by recording excitation signals at), and 380 nm and emission signals at 510 nm at 1-s intervals.
Therefore, we examined whether PL could change the concentration of [Ca^2+]i in TGF-β treated cells. Activation of HSC, the main source of liver collagen, involves the induction of α-SMA, conversing from quiescent to proliferation, and secretion of collagen. After treatment with PL, TGF-β1 was added to HSC-T6 cells and the [Ca^2+]i was measured immediately (FIG. 2). PL decreased the protein levels of α-SMA, which was detected by both flow cytometry and Western blot (FIG. 3). The results imply that a trace amount of PL is sufficient enough to block-[Ca^2+]i and down-regulate α-SMA expression.

α-SMA [3] = experiment: α-SMA expression in HSC-T6 cells (flow cytometry and Western blot); type: cell-based; details: TGF-β and PL, compared with positive control
Experimental: as §1
Liver tissues were homogenized in RIPA buffer and centrifuged as described; supernatant was taken as a whole-cell lysate. […]
Therefore, we examined whether PL could change the concentration of [Ca^2+]i in TGF-β treated cells. […] After treatment with PL, TGF-β1 was added to HSC-T6 cells and the [Ca^2+]i was measured immediately (FIG. 2). PL decreased the protein levels of α-SMA, which was detected by both flow cytometry and Western blot (FIG. 3). […]

collagen (Col 1A2) = experiment: Col 1A2 expression, immunostaining of HSC-T6 cells treated with TGF-β and PL; type: cell-based; details: HSC-T6 cells treated with TGF-β and 30, 150 or 300 nM PL for 4 hours
Experimental: It has been shown that TGF-β plays a major role in fibrogenesis via the activation of HSC. After the HSC-T6 cells were treated with TGF-β and PL for 4 hours, the cells were subjected to immunostaining and observed under a fluorescence microscopy, as shown in FIG. 4.

α-SMA [4] = experiment: α-SMA expression in liver tissue of TGF-β1 transferred fibrotic mice; type: in vivo; details: PL i.p. 30, 150 or 300 μg/kg, compared with the positive controls
Experimental: (§2) The eight-week-old BALB/c mice were fed ad libitum standard laboratory chow and water with or without 25 mM ZnSO4 plus 5% sucrose. PL was given intraperitoneally (i.p.) at 30, 150 or 300 μg/kg. The animals were hydrodynamically injected with pPK9a plasmid containing TGF-β1 gene through tail vein and simultaneously fed with ZnSO4(25 mM) and PL as reported. After 48 h, the mice were sacrificed for liver sections.
(§3) […] of plasmid (pPK9a) was dissolved in 3.0 ml Ringer's solution and injected in bolus into the tail vein in a short duration of 5˜7 seconds according to the hydrodynamics-based transfection protocol as described. ZnSO4(25 mM) was dissolved in the drinking water to activate the metallothionein promoter and stimulate TGF-β1 expression.
Mouse liver tissues were embedded in an optimal cutting temperature compound (Miles Inc.) and frozen in liquid nitrogen. […]

p-Smad2/3 = experiment: TGF-β-induced p-Smad2/3 and Smad4 translocation into nucleus (Western blot, immunocytostaining); type: cell-based
Excerpt: Translocation of phosphorylated Smad complexes into nucleus is one of the key steps in signal transduction of the liver fibrosis. In activated HSC there is an elevated accumulation of p-Smad2/3 and Smad4 in nucleus. To understand how PL regulates Smad signaling pathway, we first determined the amount of Smad complexes using Western blot.

Sp1 = Sp1 binding activity (EMSA) in liver of pPK9a-transferred mice fed with ZnSO4 water; type: in vivo, mouse; details: TGF-β1-induced increase
Experimental: as §2, §3
Since Sp1 is a critical mediator of Col 1A2 expression, we examined the effects of PL on Sp1 binding activity in pPK9a-transferred mice fed with ZnSO4 water.

SMILES: CC1=C(/C=C/C(C)=C/C=C/C(C)=C/C(=O)O)C(C)(C)CCC1 [PL]
- ROS generated by TGF-β1 [1]: sufficiently eliminate the ROS generated by TGF-β1 in a dose-dependent manner
- intracellular calcium [Ca2+]i [2]: significantly reduced
- α-SMA expression (α-SMA [3]): significantly reduced
- expression of Col 1A2 (collagen (Col 1A2)): 0.001%
- α-SMA expression in liver tissue (α-SMA [4]): markedly inhibited
- amount of p-Smad2/3 in the cell nucleus (p-Smad2/3; Western blot): decreased the amount of p-Smad2/3 in the cell nucleus in a dose-dependent manner
- transport of p-Smad2/3 into cell nucleus (p-Smad2/3; immunocytostaining): decreased the transport of p-Smad2/3 into cell nucleus also in a dose-dependent manner
- Sp1 binding activity (Sp1): the increase was reversed by PL treatment
